Test results from the supplement of paper PMC10307832.

Tests used:
Experiment in all cases: relative viability (nuclei count vs DMSO), 5 days (fraction); higher = more cells survive
Vismodegib + Luminespib = compound: CS(=O)(=O)c1ccc(C(=O)Nc2ccc(Cl)c(-c3ccccn3)c2)c(Cl)c1 [Vismodegib] + CCNC(=O)c1noc(-c2cc(C(C)C)c(O)cc2O)c1-c1ccc(CN2CCOCC2)cc1 [Luminespib] (partner 0.01 µM)
Procedure, shortened: (§1)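 One day after seeding in 1536-well plates, lung cancer cell lines were dosed by pin tool. Dosing was either single-drug or a fixed anchor-drug dose plus five library-drug doses (not always all listed) in √10 steps. After 5 days, nuclei were stained in one fix-and-stain step and counted on 4× images, and relative viability is the nuclei count of treated wells over that of vehicle wells, given as the median of duplicate plates.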

VE-821 + Phenformin = compound: CS(=O)(=O)c1ccc(-c2cnc(N)c(C(=O)Nc3ccccc3)n2)cc1 [VE-821] + N=C(N)NC(=N)NCCc1ccccc1 [Phenformin] (partner 250 µM)
Procedure, shortened: as §1

Vismodegib + Trametinib = compound: CS(=O)(=O)c1ccc(C(=O)Nc2ccc(Cl)c(-c3ccccn3)c2)c(Cl)c1 [Vismodegib] + CC(=O)Nc1cccc(-n2c(=O)n(C3CC3)c(=O)c3c(Nc4ccc(I)cc4F)n(C)c(=O)c(C)c32)c1 [Trametinib] (partner 0.02 µM)
Procedure, shortened: as §1

VE-821 + Navitoclax = compound: CS(=O)(=O)c1ccc(-c2cnc(N)c(C(=O)Nc3ccccc3)n2)cc1 [VE-821] + CC1(C)CCC(c2ccc(Cl)cc2)=C(CN2CCN(c3ccc(C(=O)NS(=O)(=O)c4ccc(N[C@H](CCN5CCOCC5)CSc5ccccc5)c(S(=O)(=O)C(F)(F)F)c4)cc3)CC2)C1 [Navitoclax] (partner 0.5 µM)
Procedure, shortened: as §1

Row | Cell Line | relative viability (Vismodegib + Luminespib; first compound 0.08 µM) | relative viability (Vismodegib + Luminespib; first compound 0.253 µM) | relative viability (Vismodegib + Luminespib; first compound 0.8 µM) | relative viability (Vismodegib + Luminespib; first compound 2.53 µM) | relative viability (Vismodegib + Luminespib; first compound 8 µM) | relative viability (VE-821 + Phenformin; first compound 0.08 µM) | relative viability (VE-821 + Phenformin; first compound 0.253 µM) | relative viability (VE-821 + Phenformin; first compound 2.53 µM) | relative viability (VE-821 + Phenformin; first compound 8 µM) | relative viability (Vismodegib + Trametinib; first compound 0.08 µM) | relative viability (Vismodegib + Trametinib; first compound 0.253 µM) | relative viability (Vismodegib + Trametinib; first compound 0.8 µM) | relative viability (Vismodegib + Trametinib; first compound 2.53 µM) | relative viability (Vismodegib + Trametinib; first compound 8 µM) | relative viability (VE-821 + Navitoclax; first compound 0.08 µM) | relative viability (VE-821 + Navitoclax; first compound 0.253 µM) | relative viability (VE-821 + Navitoclax; first compound 0.8 µM) | relative viability (VE-821 + Navitoclax; first compound 2.53 µM) | relative viability (VE-821 + Navitoclax; first compound 8 µM) | relative viability (VE-821 + Phenformin; first compound 0.8 µM)
1 | NCI-H1975 | 0.143 | 0.185 | 0.205 | 0.218 | 0.259 | 0.397 | 0.394 | 0.418 | 0.36 | 0.32 | 0.24 | 0.374 | 0.357 | 0.331 | 1 | 1.11 | 0.899 | 1.02 | 0.652 | 
2 | EPLC-272H | 0.298 | 0.224 | 0.263 | 0.235 | 0.442 | 0.322 | 0.29 | 0.383 | 0.26 | 0.276 | 0.269 | 0.246 | 0.282 | 0.297 | 1.52 | 1.13 | 1.33 | 1.12 | 1.35 | 0.326
3 | EMC-BAC-2 | 1.14 | 1.07 | 1.22 | 1.12 | 1.21 | 0.569 | 0.475 | 0.528 | 0.463 | 0.871 | 0.847 | 0.806 | 0.859 | 0.953 | 1.23 | 1.12 | 1.2 | 1.21 | 1.16 | 0.577
4 | PC-3 [JPC-3] | 0.737 | 0.651 | 0.689 | 0.653 | 0.745 | 0.455 | 0.504 | 0.469 | 0.451 | 0.695 | 0.713 | 0.636 | 0.615 | 0.729 | 0.837 | 0.801 | 0.859 | 0.789 | 0.744 | 0.448
5 | NCI-H1666 | 0.985 | 0.986 | 1.15 | 0.999 | 1.06 | 0.578 | 0.536 | 0.6 | 0.535 | 0.816 | 0.852 | 0.836 | 0.899 | 0.904 | 0.98 | 1.01 | 0.939 | 0.875 | 0.703 | 0.602
6 | NCI-H1915 | 0.759 | 0.758 | 0.785 | 0.837 | 0.769 | 0.391 | 0.359 | 0.385 | 0.347 | 0.295 | 0.282 | 0.303 | 0.303 | 0.335 | 0.8 | 0.81 | 0.826 | 0.79 | 0.678 | 0.39
7 | HCC-15 | 0.17 | 0.267 | 0.254 | 0.508 | 0.29 | 0.625 | 0.473 | 0.526 | 0.438 | 0.356 | 0.352 | 0.345 | 0.401 | 0.383 | 0.813 | 0.706 | 0.778 | 0.772 | 0.676 | 0.506
8 | EKVX | 0.749 | 0.797 | 0.929 | 0.864 | 0.896 | 0.241 | 0.223 | 0.221 | 0.226 |  | 0.392 | 0.273 | 0.273 | 0.315 | 1.17 | 0.975 | 0.632 | 1.01 | 0.907 | 0.204
9 | NCI-H1792 | 0.344 | 0.517 | 0.342 | 0.467 | 0.414 | 0.332 |  | 0.342 | 0.258 | 0.392 | 0.447 | 0.361 | 0.376 | 0.398 | 0.66 | 0.639 | 0.63 | 0.685 | 0.623 | 0.281
10 | PC-14 | 0.132 | 0.137 | 0.151 | 0.165 | 0.14 | 0.648 | 0.528 | 0.574 | 0.449 | 0.606 | 0.65 | 0.694 | 0.659 | 0.796 | 1.09 | 0.955 | 1.06 | 0.962 | 0.923 | 0.675
11 | NCI-H1650 | 0.214 | 0.192 | 0.212 | 0.178 | 0.18 | 0.496 | 0.422 | 0.3 | 0.21 | 0.621 | 0.522 | 0.643 | 0.606 | 0.666 | 1.45 | 1.25 | 0.725 | 1.29 | 0.751 | 0.363
12 | NCI-H1355 | 0.634 | 0.714 | 0.687 | 0.794 | 0.688 | 0.469 | 0.442 | 0.526 | 0.369 | 0.47 | 0.417 | 0.392 | 0.39 | 0.406 | 1.09 | 0.91 | 0.729 | 0.879 | 0.542 | 0.459
13 | HOP-62 | 0.916 | 0.914 | 0.981 | 0.93 | 0.877 | 0.671 | 0.611 | 0.696 | 0.667 | 0.357 | 0.379 | 0.37 | 0.354 | 0.376 | 1.22 | 0.91 | 1.16 | 1.17 | 1.12 | 0.77
14 | NCI-H3122 | 0.109 | 0.088 | 0.0658 | 0.073 | 0.0765 | 0.394 | 0.348 | 0.349 | 0.332 | 0.247 | 0.254 | 0.216 | 0.247 | 0.202 | 1.07 | 1.02 | 1.01 | 1.02 | 0.922 | 0.354
15 | NCI-H1437 | 0.956 | 1.13 | 1.1 | 1.09 | 1.07 | 0.318 | 0.319 | 0.306 | 0.274 | 0.462 | 0.485 | 0.493 | 0.535 | 0.536 | 1.17 | 1.11 | 1.01 | 1.12 | 1.04 | 0.329
16 | BEN | 0.363 | 0.293 | 0.475 | 0.244 | 0.326 | 0.284 | 0.281 | 0.257 | 0.249 | 1.14 | 1.03 | 0.873 | 1.14 | 1.1 | 0.0647 | 0.0527 | 0.059 | 0.0551 | 0.0693 | 0.283
